Laboratory results published in patent publication US11358957B2, “Microbiocidal oxadiazole derivatives” (SYNGENTA PARTICIPATIONS AG, priority 2017, dated 2022).

Key:
Phakopsora pachyrhizi = assay: Fungicidal activity against Phakopsora pachyrhizi / soybean / leaf disc preventative (Asian soybean rust); type: in vivo; settings: foliar, 200 ppm in the applied formulation, soybean leaf disks, compared to untreated, read-out: disease control
Method: Leaf disks or leaf segments of various plant species are cut from plants grown in a greenhouse. The cut leaf disks or segments are placed in multiwell plates (24-well format) onto water agar. The leaf disks are sprayed with a test solution before (preventative) or after (curative) inoculation. Compounds to be tested are prepared as DMSO solutions (max. 10 mg/mL) which are diluted to the appropriate concentration with 0.025% Tween20 just before spraying. The inoculated leaf disks or segments are incubated under defined conditions (temperature, relative humidity, light, etc.) according to the respective test system. A single evaluation of disease level is carried out 3 to 14 days after inoculation, depending on the pathosystem. Percent disease control relative to the untreated check leaf disks or segments is then calculated. Soybean leaf disks are placed on water agar in multiwell plates (24-well format) and sprayed with the formulated test compound diluted in water. One day after application leaf discs are inoculated by spraying a spore suspension on the lower leaf surface. After an incubation period in a climate cabinet of 24-36 hours in darkness at 20° C. and 75% rh leaf disc are kept at 20° C. with 12 h light/day and 75% rh. The activity of a compound is assessed as percent disease control compared to untreated when an appropriate level of disease damage appears in untreated check leaf disks (12 to 14 days after application). The following compounds at 200 ppm in the applied formulation give at least 80% disease control in this test when compared to untreated control leaf disks under the same conditions, which show extensive disease development.

[1] = system: Puccinia recondita f. Sp. Tritici; assay: Fungicidal activity against Puccinia recondita f. sp. tritici / wheat / leaf disc curative (brown rust); type: in vivo; settings: foliar, 24 h, 200 ppm in the applied formulation, wheat leaf segments cv. Kanzler, curative (applied 1 day after inoculation), compared to untreated, read-out: disease control
Outline: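 Wheat leaf segments (cv. Kanzler) on agar were inoculated with brown rust spores, kept dark at 19 °C and 75% RH, then sprayed 1 day later with compound (DMSO stock diluted in 0.025% Tween20). Under 12 h light/12 h dark at 19 °C, percent disease control versus untreated was scored 6–8 days after application; 200 ppm applied.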

[2] = system: Glomerella lagenarium (Colletotrichum lagenarium); assay: Fungicidal activity against Glomerella lagenarium (Colletotrichum lagenarium) liquid culture / cucumber / preventative (anthracnose); type: cell-based; settings: Colletotrichum orbiculare; 20 ppm in the applied formulation; liquid culture (PDB), inhibition of growth measured photometrically 3 to 4 days after application; compared to untreated; read-out: disease control
Outline: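 Conidia from cryogenic storage mixed into potato dextrose broth and added to compound in DMSO in microtiter plates. Incubated at 24° C.; growth inhibition read photometrically 3 to 4 days after application. Disease control expressed relative to untreated control, with compound at 20 ppm in the applied formulation.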

[3] = system: Puccinia recondita f. Sp. Tritici; assay: Fungicidal activity against Puccinia recondita f. sp. tritici / wheat / leaf disc preventative (brown rust); type: in vivo; settings: foliar, 200 ppm in the applied formulation, wheat leaf segments cv. Kanzler, preventative (inoculated 1 day after application), compared to untreated, read-out: disease control
Outline: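 Segments of wheat cv. Kanzler on water agar were sprayed with compound and inoculated with spores 1 day later. They were kept at 19 °C, 75% rh and 12 h light/12 h dark. Percent disease control versus untreated was scored 7–9 days after application; compounds were tested at 200 ppm.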

melting point	Structure (SMILES)	pest or weed control at 200 ppm (Phakopsora pachyrhizi)	pest or weed control at 200 ppm [1]	inhibition of growth at 20 ppm [2]	pest or weed control at 200 ppm [3]
113 to 116 °C	CN(C)c1ncn(Cc2ccc(-c3noc(C(F)(F)F)n3)s2)n1 [Compound 1.4, N,N-dimethyl-1-[[5-[5-(trifluoromethyl)-1,2,4-oxadiazol-3-yl]-2-thienyl]methyl]-1,2,4-triazol-3-amine]	≥ 80%	≥ 80%	≥ 80%	≥ 80%
–	COc1ccc2ncn(Cc3ccc(-c4noc(C(F)(F)F)n4)s3)c2c1 [Compound 1.23, 3-[5-[(6-methoxybenzimidazol-1-yl)methyl]-2-thienyl]-5-(trifluoromethyl)-1,2,4-oxadiazole]	≥ 80%	≥ 80%	≥ 80%	≥ 80%
–	COc1ccc2c(c1)ncn2Cc1ccc(-c2noc(C(F)(F)F)n2)s1 [Compound 1.24, 3-[5-[(5-methoxybenzimidazol-1-yl)methyl]-2-thienyl]-5-(trifluoromethyl)-1,2,4-oxadiazole]	≥ 80%	≥ 80%	≥ 80%	≥ 80%
–	FC(F)(F)c1nc(-c2ccc(Cn3cnc4ccccc43)s2)no1 [Compound 1.25, 3-[5-(benzimidazol-1-ylmethyl)-2-thienyl]-5-(trifluoromethyl)-1,2,4-oxadiazole]	≥ 80%	≥ 80%	≥ 80%	≥ 80%
119 to 123 °C	CCOC(=O)c1cnn(Cc2cc(-c3noc(C(F)(F)F)n3)cs2)c1 [Compound 1.26, ethyl 1-[[4-[5-(trifluoromethyl)-1,2,4-oxadiazol-3-yl]-2-thienyl]methyl]pyrazole-4-carboxylate]	–	–	≥ 80%	≥ 80%
–	CCOC(=O)c1cnn(C(C)c2ccc(-c3noc(C(F)(F)F)n3)s2)c1 (stereo not drawn) [Compound 1.30, ethyl 1-[1-[5-[5-(trifluoromethyl)-1,2,4-oxadiazol-3-yl]-2-thienyl]ethyl]pyrazole-4-carboxylate]	≥ 80%	≥ 80%	≥ 80%	≥ 80%
–	Cc1cccc(=O)n1C(C)c1ccc(-c2noc(C(F)(F)F)n2)s1 (stereo not drawn) [Compound 1.33, 6-methyl-1-[1-[5-[5-(trifluoromethyl)-1,2,4-oxadiazol-3-yl]-2-thienyl]ethyl]pyridin-2-one]	≥ 80%	≥ 80%	≥ 80%	≥ 80%
–	CC(c1ccc(-c2noc(C(F)(F)F)n2)s1)N1CCCCC1=O (stereo not drawn) [Compound 1.34, 1-[1-[5-[5-(trifluoromethyl)-1,2,4-oxadiazol-3-yl]-2-thienyl]ethyl]piperidin-2-one]	≥ 80%	≥ 80%	≥ 80%	≥ 80%
76 to 78 °C	CC(c1ccc(-c2noc(C(F)(F)F)n2)s1)n1cc(C(=O)N2CCC2)cn1 (stereo not drawn) [Compound 1.35, azetidin-1-yl-[1-[1-[5-[5-(trifluoromethyl)-1,2,4-oxadiazol-3-yl]-2-thienyl]ethyl]pyrazol-4-yl]methanone]	≥ 80%	≥ 80%	≥ 80%	≥ 80%
182 to 185 °C	O=C(O)c1cnn(Cc2ccc(-c3noc(C(F)(F)F)n3)s2)c1 [Compound 1.36, 1-[[5-[5-(trifluoromethyl)-1,2,4-oxadiazol-3-yl]-2-thienyl]methyl]pyrazole-4-carboxylic acid]	–	≥ 80%	≥ 80%	≥ 80%
133 to 143 °C	CC(c1ccc(-c2noc(C(F)(F)F)n2)s1)n1cc(C(=O)O)cn1 (stereo not drawn) [Compound 1.37, 1-[1-[5-[5-(trifluoromethyl)-1,2,4-oxadiazol-3-yl]-2-thienyl]ethyl]pyrazole-4-carboxylic acid]	–	≥ 80%	≥ 80%	≥ 80%
–	CCOC(=O)c1ncnn1Cc1ccc(-c2noc(C(F)(F)F)n2)s1 [Compound 1.41, ethyl 2-[[5-[5-(trifluoromethyl)-1,2,4-oxadiazol-3-yl]-2-thienyl]methyl]-1,2,4-triazole-3-carboxylate]	≥ 80%	≥ 80%	≥ 80%	≥ 80%
–	CCCOC(=O)c1ncnn1Cc1ccc(-c2noc(C(F)(F)F)n2)s1 [Compound 1.44, propyl 2-[[5-[5-(trifluoromethyl)-1,2,4-oxadiazol-3-yl]-2-thienyl]methyl]-1,2,4-triazole-3-carboxylate]	≥ 80%	≥ 80%	≥ 80%	≥ 80%
–	CCOC(=O)c1ccnn1Cc1ccc(-c2noc(C(F)(F)F)n2)s1 [Compound 1.45, ethyl 2-[[5-[5-(trifluoromethyl)-1,2,4-oxadiazol-3-yl]-2-thienyl]methyl]pyrazole-3-carboxylate]	≥ 80%	≥ 80%	≥ 80%	≥ 80%
–	CCCOC(=O)c1ccnn1Cc1ccc(-c2noc(C(F)(F)F)n2)s1 [Compound 1.47, propyl 2-[[5-[5-(trifluoromethyl)-1,2,4-oxadiazol-3-yl]-2-thienyl]methyl]pyrazole-3-carboxylate]	≥ 80%	≥ 80%	≥ 80%	≥ 80%
–	CN(C)C(=O)c1ncnn1Cc1ccc(-c2noc(C(F)(F)F)n2)s1 [Compound 1.50, N,N-dimethyl-2-[[5-[5-(trifluoromethyl)-1,2,4-oxadiazol-3-yl]-2-thienyl]methyl]-1,2,4-triazole-3-carboxamide]	≥ 80%	≥ 80%	≥ 80%	≥ 80%
–	COC(=O)c1ccn(Cc2ccc(-c3noc(C(F)(F)F)n3)s2)n1 [Compound 1.53, methyl 1-[[5-[5-(trifluoromethyl)-1,2,4-oxadiazol-3-yl]-2-thienyl]methyl]pyrazole-3-carboxylate]	≥ 80%	≥ 80%	≥ 80%	≥ 80%
–	COC(=O)c1ccnn1Cc1ccc(-c2noc(C(F)(F)F)n2)s1 [Compound 1.54, methyl 2-[[5-[5-(trifluoromethyl)-1,2,4-oxadiazol-3-yl]-2-thienyl]methyl]pyrazole-3-carboxylate]	≥ 80%	≥ 80%	≥ 80%	≥ 80%
–	COC(=O)c1ncnn1Cc1ccc(-c2noc(C(F)(F)F)n2)s1 [Compound 1.55, methyl 2-[[5-[5-(trifluoromethyl)-1,2,4-oxadiazol-3-yl]-2-thienyl]methyl]-1,2,4-triazole-3-carboxylate]	≥ 80%	≥ 80%	≥ 80%	≥ 80%
210 to 220 °C	O=C(O)c1ncn(Cc2ccc(-c3noc(C(F)(F)F)n3)s2)n1 [Compound 1.63, 1-[[5-[5-(trifluoromethyl)-1,2,4-oxadiazol-3-yl]-2-thienyl]methyl]-1,2,4-triazole-3-carboxylic acid]	–	≥ 80%	–	≥ 80%
145 to 165 °C	O=C(O)c1ccnn1Cc1ccc(-c2noc(C(F)(F)F)n2)s1 [Compound 1.64, 2-[[5-[5-(trifluoromethyl)-1,2,4-oxadiazol-3-yl]-2-thienyl]methyl]pyrazole-3-carboxylic acid]	–	≥ 80%	≥ 80%	≥ 80%
